Source: patent US9738731B2, “Lactic acid bacterium growth enhancer, regulatory T-cell number increasing agent, method of enhancing growth of lactic acid bacterium, method of increasing number of regulatory T-cells, method of evaluating regulatory T-cell number increasing effect, and method of evaluating lactic acid growth …” (TOKYO UNIVERSITY OF SCIENCE FOUNDATION, priority 2013, dated 2017)

System: total cLP cells from WT mice
Assay: Co-culture of total cLP cells with Lactobacillus strains, gene expression
Type: cell-based, mouse
Conditions: 1×10^5 cLP cells with 1×10^6 CFU, 12 h
Experimental: FIG. 7C: 1×10^5 total cLP cells from WT mice were co-cultured with 1×10^6 CFU (/well) L. murinus, L. animalis, L. salivarius, L. johnsonii or L. reuteri for 12 h. Cytokine gene expression was determined by real-time RT-PCR. Data in (FIGS. 7A-C) are representative of two independent experiments.
Total RNA was extracted with Mammalian Total RNA Miniprep kit (Sigma-Aldrich, St. Louis, U.S.) according to the manufacturer's instructions. RNA was denatured in the presence of an oligo dT primer and then reverse transcribed with the High Capacity cDNA Reverse Transcription Kit (Applied Biosystems, San Francisco, U.S.). Quantitative real-time RT-PCRs were performed with a SYBR Green qPCR kit (Carlsbad, U.S.) and an iCycler system (Bio-Rad, Hercules, U.S.) with the sets of primers described in Table 1, and the expression of each mRNA encoding cytokine was normalized with gapdh expression level.

## Lactobacillus reuteri
  expression of these genes (Tgfb, Il10, Foxp3, Rorc): did not modify
